Measured values reported in patent US20260287592A1, “ANALYSIS METHOD AND ANALYSIS SYSTEM” (priority 2023, published 2026).

Test system: HER3
Conditions: Type3: SN-38 0.01 μM, gefitinib 0.00 μM; SKBR-3 cells, 24 hours; anti-HER3 staining

## CCc1c2c(nc3ccc(O)cc13)-c1cc3c(c(=O)n1C2)COC(=O)[C@]3(O)CC [SN-38, 7-ethyl-10-hydroxycamptothecin]
  AVERAGE VALUE OF 10 WELLS FOR NUMBER OF BRIGHT SPOTS PER CELL: 12
